From patent US20110052730A1, “Leaves Extract of Panax sp., a Process of Making the Same and Uses Thereof” (UNIGEN, INC., priority 2008, published 2011)

Test: Physicochemical properties of ginsenosides (soluble in)

SMILES | Soluble in
CC(C)=CC/C=C(/C)C1CCC2(C)C1[C@H](O)CC1[C@@]3(C)CCC(OC4OC(CO)C(O)C(O)C4OC4OC(CO)C(O)C(O)C4O)C(C)(C)C3CC[C@]12C (some centres unmarked) [Rg5] | Alcohol
C=C(CCC=C(C)C)C1CCC2(C)C1[C@H](O)CC1[C@@]3(C)CCC(OC4OC(CO)C(O)C(O)C4OC4OC(CO)C(O)C(O)C4O)C(C)(C)C3CC[C@]12C (some centres unmarked) [Rk1] | Alcohol
